Earlier results on 101 compounds are cited in patent US10332616B2, “Movable type method applied to protein-ligand binding” (University of Florida Research Foundation, Inc., priority 2013, dated 2019).

Read-outs that look alike come from different tables or passages of the source.

The mark [1] stands for this setting: experimental solvation free energy, test set with 372 neutral compounds.
The mark [2] stands for this setting: experimental solvation free energy, neutral compounds test set.
Where [3] appears, read: aqueous solvation free energy, charged compounds (ions).

On to `CCCCO[N+](=O)[O-]` [test1003], for which the “Exp. ΔGsolv” value under setting [1] was -2.1 kcal/mol.
Consider `Cc1ccccc1` [Compound 0036tol], for which, under setting [1], the “Exp. ΔGsolv” value is -0.89 kcal/mol.
In the case of `O=Cc1ccc(O)cc1` [Compound 0151phy], under setting [2], the “Exp. ΔGsolv” value is -10.48 kcal/mol.
For the compound `CCCCN(CC)c1c([N+](=O)[O-])cc(C(F)(F)F)cc1[N+](=O)[O-]` [test1011], the “Exp. ΔGsolv” value under setting [2] was -3.5 kcal/mol.
Take `Cl/C=C\Cl` [Compound 0171Zdi]: the “Exp. ΔGsolv” value under setting [1] was -1.17 kcal/mol.
Turning to `COP(=S)(OC)Oc1cc(Cl)c(Cl)cc1Cl` [Compound 0444pho], the “Exp. ΔGsolv” value under setting [1] is -5.06 kcal/mol.
For the compound `CBr` [Compound 0177bro], under setting [1], the “Exp. ΔGsolv” value is -0.82 kcal/mol.
For `CCOP(=S)(OCC)Oc1cc(C)nc(C(C)C)n1` [test1024], under setting [2], the “Exp. ΔGsolv” value was -6.5 kcal/mol.
As to `O=S1OC[C@@H]2[C@H](CO1)[C@@]1(Cl)C(Cl)=C(Cl)[C@]2(Cl)C1(Cl)Cl` (some centres unmarked) [test1029], the “Exp. ΔGsolv” value under setting [2] is -4.2 kcal/mol.
Turning to `CC(C)Br` [Compound 0183bro], under setting [1], the “Exp. ΔGsolv” value was -0.48 kcal/mol.
For `CCCl` [Compound 0163chl], the “Exp. ΔGsolv” value under setting [1] is -0.63 kcal/mol.
Regarding `CCOC(C)OCC` [test0009], the “Exp. ΔGsolv” value under setting [2] was -3.28 kcal/mol.
With `ClC=C(Cl)Cl` [Compound 0173tri], the “Exp. ΔGsolv” value under setting [1] is -0.39 kcal/mol.
Take `CC1=CC(=O)CC(C)(C)C1` [test1034]: the “Exp. ΔGsolv” value under setting [1] was -5.2 kcal/mol.
As to `COCCO` [Compound 0146met], the “Exp. ΔGsolv” value under setting [2] is -6.77 kcal/mol.
`CC(C)(C)C` [Compound 0011dim]: the “Exp. ΔGsolv” value under setting [1] is on record as 2.5 kcal/mol.
Regarding `COC(C)=O` [Compound 0093met], the “Exp. ΔGsolv” value under setting [2] is -3.32 kcal/mol.
As to `CCC(C)n1c(=O)[nH]c(C)c(Br)c1=O` (centres unmarked) [test1013], the “Exp. ΔGsolv” value under setting [2] was -9.7 kcal/mol.
In the case of `COc1cccc(C(=O)O)c1` [test3015], the “Exp. ΔGsolv” value under setting [2] was -8.93 kcal/mol.
As for `CC#N` [Compound 0126eth], the “Exp. ΔGsolv” value under setting [1] was -3.89 kcal/mol.
Regarding `OC(C(F)(F)F)C(F)(F)F` [Compound 0212hex], the “Exp. ΔGsolv” value under setting [2] is -3.77 kcal/mol.
`O=C(O)c1ccccc1` [i064, benzoicacid, reference compound]: under setting [3], the “Exp. ΔGsolv” value is -71.20 kcal/mol.
As to `Cc1cnccn1` [Compound 0117met], the “Exp. ΔGsolv” value under setting [1] is -5.57 kcal/mol.
Take `O=S1(=O)CCCC1` [test2027]: the “Exp. ΔGsolv” value under setting [2] is -8.61 kcal/mol.
For the compound `COCCN` [Compound 0147met], the “Exp. ΔGsolv” value under setting [2] is -6.55 kcal/mol.
With `CN` [Compound 0228met], the “Exp. ΔGsolv” value under setting [2] is -4.56 kcal/mol.
`O=Cc1ccccc1` [Compound 0074ben]: under setting [2], the “Exp. ΔGsolv” value was -4.02 kcal/mol.
With `CCO` [Compound 0045eth], the “Exp. ΔGsolv” value under setting [2] is -5.01 kcal/mol.
As to `Clc1ccc(Cl)cc1` [Compound 0176pdi], the “Exp. ΔGsolv” value under setting [1] was -1.01 kcal/mol.
Turning to `CC(C)CBr` [Compound 0418bri], the “Exp. ΔGsolv” value under setting [1] was -0.03 kcal/mol.
For `O=c1cc(Cl)[nH]c(=O)[nH]1` [test2006], the “Exp. ΔGsolv” value under setting [2] is -15.83 kcal/mol.
`COC(=O)c1ccccc1S(=O)(=O)NC(=O)Nc1nc(C)cc(C)n1` [test1051]: the “Exp. ΔGsolv” value under setting [2] is -20.3 kcal/mol.
On to `CC(=O)OCCOC(C)=O` [test0013], for which the “Exp. ΔGsolv” value under setting [2] is -6.34 kcal/mol.
Turning to `C1COCCO1` [Compound 0062dio], under setting [2], the “Exp. ΔGsolv” value is -5.05 kcal/mol.
In the case of `CCOP(=O)(OCC)OCC` [Compound 0221tri], under setting [2], the “Exp. ΔGsolv” value was -7.8 kcal/mol.
`BrCBr` [Compound 0178dib]: the “Exp. ΔGsolv” value under setting [1] was -2.11 kcal/mol.
On to `C1=CCCC1` [Compound 0026cyc], for which, under setting [1], the “Exp. ΔGsolv” value is recorded as 0.56 kcal/mol.
Regarding `CN` [i003, methylamine, reference compound], the “Exp. ΔGsolv” value under setting [3] was -76.40 kcal/mol.
For the compound `O=C(O)c1ccccc1Nc1cccc(C(F)(F)F)c1` [test3021], the “Exp. ΔGsolv” value under setting [2] was -5.68 kcal/mol.
On to `Nc1cccc(N)c1` [i023, 3-aminoaniline, reference compound], for which, under setting [3], the “Exp. ΔGsolv” value was -65.80 kcal/mol.
For `CCN` [Compound 0103eth], the “Exp. ΔGsolv” value under setting [2] is -4.5 kcal/mol.
Consider `CCCCN(CC)C(=O)SCCC` [test1044], for which the “Exp. ΔGsolv” value under setting [2] is -3.6 kcal/mol.
`CCNc1nc(NC(C)C)nc(SC)n1` [test1009]: under setting [1], the “Exp. ΔGsolv” value is -7.7 kcal/mol.
As to `COc1c(Cl)ccc(Cl)c1C(=O)O` [test1025], the “Exp. ΔGsolv” value under setting [2] is -9.9 kcal/mol.
As for `COC(C)(C)C` [Compound 0067but], the “Exp. ΔGsolv” value under setting [2] was -2.21 kcal/mol.
Regarding `CCOP(=S)(OCC)Oc1ccc([N+](=O)[O-])cc1` [test1043], the “Exp. ΔGsolv” value under setting [2] is -6.7 kcal/mol.
In the case of `Nc1ccc(Nc2ccccc2)c2c1C(=O)c1ccccc1C2=O` [test1059], under setting [2], the “Exp. ΔGsolv” value is -7.4 kcal/mol.
Regarding `CN(C)c1ccccc1` [n014], under setting [2], the “Exp. ΔGsolv” value was -3.58 kcal/mol.
In the case of `CCC(C)=O` [Compound 0076but], the “Exp. ΔGsolv” value under setting [1] is -3.64 kcal/mol.
Turning to `CCC(=O)OC` [Compound 0094met], the “Exp. ΔGsolv” value under setting [2] is -2.93 kcal/mol.
Turning to `Cc1ccccn1` [Compound 0119met], the “Exp. ΔGsolv” value under setting [1] is -4.63 kcal/mol.
Consider `COP(=S)(OC)Oc1ccc([N+](=O)[O-])cc1` [Compound 0441pho], for which the “Exp. ΔGsolv” value under setting [2] is -7.62 kcal/mol.
With `CN1CCNCC1` [Compound 0112Nme], under setting [2], the “Exp. ΔGsolv” value was -7.77 kcal/mol.
Turning to `CCCSP(=O)(OCC)Oc1ccc(Br)cc1Cl` (centres unmarked) [Compound 0442pho], the “Exp. ΔGsolv” value under setting [2] was -4.09 kcal/mol.
On to `CNC` [Compound 0104dim], for which the “Exp. ΔGsolv” value under setting [2] is -4.29 kcal/mol.
In the case of `COO` [methylperoxide, reference compound], the ΔGsol experimental value (neutral molecule) was -5.28 kcal/mol.
As to `CCCO` [Compound 0047pro], under setting [2], the “Exp. ΔGsolv” value is -4.83 kcal/mol.
As for `CNC(C)=O` [Compound 0234ENmb], the “Exp. ΔGsolv” value under setting [2] is -10 kcal/mol.
For `CSC` [Compound 0140dim], the “Exp. ΔGsolv” value under setting [2] was -1.54 kcal/mol.
On to `CCCCCO` [Compound 0052pen], for which the “Exp. ΔGsolv” value under setting [2] is -4.47 kcal/mol.
In the case of `CCOP(=S)(OCC)Oc1nc(Cl)c(Cl)cc1Cl` [test1022], under setting [1], the “Exp. ΔGsolv” value was -5 kcal/mol.
On to `CC(=O)O` [i059, aceticacid, reference compound], for which the “Exp. ΔGsolv” value under setting [3] was -77.60 kcal/mol.
For `C1CCCCC1` [Compound 0018cyc], under setting [1], the “Exp. ΔGsolv” value is recorded as 1.23 kcal/mol.
Regarding `CCOC(=O)CC(SP(=S)(OC)OC)C(=O)OCC` (centres unmarked) [test1036], the “Exp. ΔGsolv” value under setting [2] was -8.2 kcal/mol.
`Clc1ccccc1` [Compound 0174chl]: under setting [1], the “Exp. ΔGsolv” value is -1.12 kcal/mol.
In the case of `CNC(C)=O` [Compound 0235ZNmb], the “Exp. ΔGsolv” value under setting [2] was -10 kcal/mol.
On to `N#Cc1ccccc1` [Compound 0129ben], for which the “Exp. ΔGsolv” value under setting [1] was -4.1 kcal/mol.
On to `CCC(=O)CC` [Compound 0079pen], for which the “Exp. ΔGsolv” value under setting [1] was -3.41 kcal/mol.
As to `CCCCC(C)=O` [Compound 0080hex], the “Exp. ΔGsolv” value under setting [1] was -3.29 kcal/mol.
In the case of `O=C(O)c1cc(-c2ccc(F)cc2F)ccc1O` [test2010], under setting [2], the “Exp. ΔGsolv” value was -9.4 kcal/mol.
As to `O=c1[nH]c(=O)[nH]c(=O)[nH]1` [test2007], the “Exp. ΔGsolv” value under setting [2] was -18.06 kcal/mol.
Turning to `CCC(C)O[N+](=O)[O-]` (centres unmarked) [test1004], the “Exp. ΔGsolv” value under setting [1] was -1.8 kcal/mol.
Consider `ClCC(Cl)(Cl)Cl` [Compound 0407tet], for which the “Exp. ΔGsolv” value under setting [1] was -1.15 kcal/mol.
With `CCCOC` [Compound 0064met], the “Exp. ΔGsolv” value under setting [2] is -1.66 kcal/mol.
As for `CCCC` [Compound 0004nbu], under setting [1], the “Exp. ΔGsolv” value was 2.08 kcal/mol.
With `CC(C)Cc1ccc(C(C)C(=O)O)cc1` (centres unmarked) [test2017], the “Exp. ΔGsolv” value under setting [2] was -7 kcal/mol.
Turning to `c1ccncc1` [Compound 0116pyr], the “Exp. ΔGsolv” value under setting [1] is -4.7 kcal/mol.
Take `CNc1ccccc1` [Compound 0122Nme]: under setting [1], the “Exp. ΔGsolv” value was -4.68 kcal/mol.
`Cn1c(=O)c2c(ncn2C)n(C)c1=O` [test2004]: the “Exp. ΔGsolv” value under setting [2] is -12.64 kcal/mol.
Turning to `COCOC` [test0012], the “Exp. ΔGsolv” value under setting [2] was -2.93 kcal/mol.
For the compound `CCNc1nc(Cl)nc(NCC)n1` [test1050], under setting [2], the “Exp. ΔGsolv” value is -10.2 kcal/mol.
As for `CCCCCCCC=O` [Compound 0237oct], the “Exp. ΔGsolv” value under setting [2] is -2.29 kcal/mol.
Take `FC(F)(F)C(Cl)Br` (centres unmarked) [Compound 0201bro]: the “Exp. ΔGsolv” value under setting [1] was -0.13 kcal/mol.
For `CC(=O)Oc1ccccc1C(=O)O` [test2001], under setting [2], the “Exp. ΔGsolv” value is -9.94 kcal/mol.
Turning to `C=CC(=O)O` [i062, acrylicacid, reference compound], under setting [3], the “Exp. ΔGsolv” value was -74.00 kcal/mol.
For `CCC[N+](=O)[O-]` [Compound 0131nit], the “Exp. ΔGsolv” value under setting [1] was -3.34 kcal/mol.
In the case of `CC(F)F` [Compound 0154dif], the “Exp. ΔGsolv” value under setting [1] is -0.11 kcal/mol.
On to `COP(=S)(OC)Oc1cc(Cl)c(Br)cc1Cl` [Compound 0445pho], for which the “Exp. ΔGsolv” value under setting [1] was -5.7 kcal/mol.
Turning to `Nc1ccccc1` [Compound 0118ani], the “Exp. ΔGsolv” value under setting [2] is -5.49 kcal/mol.
In the case of `CCC(C)Cl` (centres unmarked) [Compound 0409clb], under setting [1], the “Exp. ΔGsolv” value is on record as 0.07 kcal/mol.
As for `CCOc1ccccc1` [Compound 0246eth], the “Exp. ΔGsolv” value under setting [2] was -2.22 kcal/mol.
As to `Cc1nc(N(C)C)nc(OC(=O)N(C)C)c1C` [test1063], the “Exp. ΔGsolv” value under setting [1] was -9.4 kcal/mol.
For `C1CCCC1` [Compound 0017cyc], the “Exp. ΔGsolv” value under setting [1] is on record as 1.2 kcal/mol.
`CCCCOC(=O)c1ccc(O)cc1` [test2003]: the “Exp. ΔGsolv” value under setting [2] is -8.72 kcal/mol.
`C#CCC` [Compound 0032but]: under setting [1], the “Exp. ΔGsolv” value is -0.16 kcal/mol.
`C1CNCCN1` [Compound 0109pip]: the “Exp. ΔGsolv” value under setting [2] is -7.4 kcal/mol.
`ClCCBr` [Compound 0202bro]: the “Exp. ΔGsolv” value under setting [1] is -1.95 kcal/mol.
As for `Cc1ccccc1O` [Compound 0055ocr], under setting [2], the “Exp. ΔGsolv” value is -5.87 kcal/mol.
Turning to `FC(Cl)(Cl)Cl` [Compound 0422ftc], the “Exp. ΔGsolv” value under setting [1] is 0.82 kcal/mol.
For `c1ccccc1` [Compound 0035ben], the “Exp. ΔGsolv” value under setting [1] is -0.87 kcal/mol.
Consider `O=Cc1cccc(O)c1` [Compound 0150mhy], for which, under setting [2], the “Exp. ΔGsolv” value is -9.51 kcal/mol.
